From US20240067693A1, “POLYPEPTIDES AND USES THEREOF” (MEDIMMUNE LIMITED, priority 2020, published 2024)
Numbered stars: 1 amine (or outer) side, 2 acyl side, 3 side chain; on linkers, the order of the positions; unused ones are H or OH. Bridge positions count the residues as written; N and C are the ends. Square brackets hold non-standard residues; d marks the D form. Side chains are listed from the residue outwards. Ends that are not written are not given here. Peptide text beside a SMILES is read from it. * marks the point of attachment. C18 diacid = O=C(O)CCCCCCCCCCCCCCCCC(=O)*; γGlu = O=C(O)[C@H](CCC(=O)[*:2])N[*:1]; Aib = CC(C)(N)C(=O)O

Assays:
[1] = Roth et al. Br J Pharmacol 2012; cited from earlier work
[2] = molecular target: T1, rat calcitonin receptor (rat CTR) (Rattus norvegicus, UniProt P32214); test: cAMP production in HEK cells with stable recombinant expression of rat calcitonin receptor (rat CTR); type: cell-based; settings: assay buffer with 0.1% BSA
T1 construct: expressed in transfected cells
T1 sequence (P32214 25-516): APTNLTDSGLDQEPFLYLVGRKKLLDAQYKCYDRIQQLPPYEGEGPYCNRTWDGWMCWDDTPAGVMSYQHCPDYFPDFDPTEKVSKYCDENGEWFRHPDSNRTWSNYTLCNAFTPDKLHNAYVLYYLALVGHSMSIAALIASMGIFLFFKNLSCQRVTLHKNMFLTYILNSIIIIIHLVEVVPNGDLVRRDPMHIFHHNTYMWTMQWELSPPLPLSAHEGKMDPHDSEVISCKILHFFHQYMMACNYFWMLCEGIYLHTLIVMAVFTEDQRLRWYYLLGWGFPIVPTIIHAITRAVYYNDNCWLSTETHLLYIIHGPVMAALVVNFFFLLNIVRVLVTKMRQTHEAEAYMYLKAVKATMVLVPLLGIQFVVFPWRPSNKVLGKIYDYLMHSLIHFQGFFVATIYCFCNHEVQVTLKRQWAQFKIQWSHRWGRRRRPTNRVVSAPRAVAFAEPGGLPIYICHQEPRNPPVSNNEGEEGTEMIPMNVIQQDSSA
Summary of the method: (§1)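 Thawed cells in HBSS/0.1% BSA/25 mM HEPES pH 7.4 with 0.5 mM IBMX were incubated with peptides 30 min at room temperature; cAMP read by HTRF. EC50 from 4-parameter fit of % activation relative to maximal amylin or calcitonin effect.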

[3] = molecular target: T2, rat amylin receptor (calcitonin receptor co-expressed with receptor activity modifying protein, RAMP3) (Rat AMYR3) (Rattus norvegicus, UniProt P32214+Q9JJ73); test: cAMP production in HEK cells with stable recombinant expression of rat amylin receptor (Rat AMYR3); type: cell-based; settings: assay buffer with 0.1% BSA
T2 construct: expressed in transfected cells
T2 sequence (P32214 25-516): T1 sequence (P32214 25-516)
T2 sequence (Q9JJ73 23-147 partner): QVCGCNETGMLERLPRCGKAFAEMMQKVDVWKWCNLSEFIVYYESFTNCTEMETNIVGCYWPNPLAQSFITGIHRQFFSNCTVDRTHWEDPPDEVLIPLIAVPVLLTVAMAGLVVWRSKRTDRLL
Summary of the method: as §1

[4] = molecular target: T3, human amylin receptor (calcitonin receptor co-expressed with receptor activity modifying protein, RAMP3) (hAMYR3) (Homo sapiens, UniProt O60896+P30988); test: cAMP production in 1321N1 cells with stable recombinant expression of human amylin receptor (hAMYR3); type: cell-based; settings: for Ratio (selectivity hAMYR vs hCTR, ratio of EC50 values at the two receptors): EC50 hCTR / EC50 hAMYR3; for EC50: cAMP, 1321N1 cells, assay buffer with 0.1% BSA, read-out: EC50 (pM) hAMYR3
T3 construct: expressed in transfected cells
T3 sequence (P30988 25-474): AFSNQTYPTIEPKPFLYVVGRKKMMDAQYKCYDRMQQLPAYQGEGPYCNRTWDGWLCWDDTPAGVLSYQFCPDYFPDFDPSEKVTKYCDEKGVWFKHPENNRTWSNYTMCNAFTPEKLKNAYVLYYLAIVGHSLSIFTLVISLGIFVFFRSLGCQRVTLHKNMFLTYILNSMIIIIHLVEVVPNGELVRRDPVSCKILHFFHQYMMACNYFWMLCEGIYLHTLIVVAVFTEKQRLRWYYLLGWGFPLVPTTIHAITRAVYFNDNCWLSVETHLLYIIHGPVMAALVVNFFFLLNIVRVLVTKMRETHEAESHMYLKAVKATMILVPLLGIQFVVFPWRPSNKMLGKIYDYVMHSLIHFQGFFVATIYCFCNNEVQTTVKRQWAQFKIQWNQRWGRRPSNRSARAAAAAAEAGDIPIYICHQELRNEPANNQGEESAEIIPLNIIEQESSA
T3 sequence (O60896 24-148 partner): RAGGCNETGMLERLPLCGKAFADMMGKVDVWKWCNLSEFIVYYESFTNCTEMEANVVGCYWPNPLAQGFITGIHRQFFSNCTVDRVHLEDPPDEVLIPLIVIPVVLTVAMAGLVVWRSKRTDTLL
Summary of the method: as §1

lean rats = test: Rat acute food intake study; type: in vivo; settings: lean male Sprague Dawley rats, 20 nmol/kg subcutaneously
Summary of the method: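 Male Sprague Dawley rats (n=7/group), fasted 6 h, received 20 nmol/kg test compound or 60 nmol/kg pramlintide subcutaneously 30 min before food return at dark onset. Food intake recorded automatically in home cages over 3 days, binned hourly and analysed as cumulative dark-period intake; body weight taken daily.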

[5] = Pharmacokinetic determination via IV and SC administration in Sprague Dawley rats; settings: male, rat, plasma, 20 nmol/kg
[6] = molecular target: T4, human calcitonin receptor (hCTR) (Homo sapiens, UniProt P30988); test: cAMP production in 1321N1 cells with stable recombinant expression of human calcitonin receptor (hCTR); type: cell-based; settings: cAMP, 1321N1 cells, assay buffer with 0.1% BSA; read-out: EC50 (pM) hCTR
T4 construct: expressed in transfected cells
T4 sequence (P30988 25-474): T3 sequence (P30988 25-474)
Summary of the method: as §1

Compound | terminal half-life in rats [1] | EC50 [2] | EC50 [3] | Ratio (selectivity hAMYR vs hCTR, ratio of EC50 values at the two receptors) [4] | EC50 [4] | Cummulative food intake (% vehicle treated intake) At 12 h (lean rats) | Cummulative food intake (% vehicle treated intake) At 24 h (lean rats) | Cummulative food intake (% vehicle treated intake) At 48 h (lean rats) | half-life ([5]; iv) | half-life ([5]; sc) | EC50 [6]
amylin (KCNTATCATQRLANFLVHSSNNFGAILSSTNVGSNTY; not fully specified (C-terminus, bridges); cysteine pairing not given here; UniProt P10997 34-70, looked up) [native amylin, of which pramlintide is a synthetic analogue with three proline substitutions] | around 13 minutes | – | – | – | – | – | – | – | – | – | –
CC[C@H](C)[C@H](NC(=O)[C@@H]1CCCN1C(=O)CNC(=O)[C@H](Cc1ccccc1)NC(=O)[C@H](CC(N)=O)NC(=O)C(C)(C)NC(=O)[C@H](CO)NC(=O)[C@H](CO)NC(=O)[C@H](Cc1c[nH]cn1)NC(=O)[C@H](CCCNC(=N)N)NC(=O)[C@H](CC(C)C)NC(=O)[C@H](Cc1ccccc1)NC(=O)[C@H](CC(N)=O)NC(=O)[C@H](C)NC(=O)[C@H](CC(C)C)NC(=O)[C@H](CCCNC(=N)N)NC(=O)[C@H](CCC(N)=O)NC(=O)[C@@H](NC(=O)[C@H](C)NC(=O)[C@@H]1CSSC[C@H](NC(=O)[C@H](CCCCN)NC(=O)[C@@H](N)CCCCNC(=O)CC[C@H](NC(=O)CCCCCCCCCCCCCCCCC(=O)O)C(=O)O)C(=O)N[C@@H](CC(N)=O)C(=O)N[C@@H]([C@@H](C)O)C(=O)N[C@@H](C)C(=O)N[C@@H]([C@@H](C)O)C(=O)N1)[C@@H](C)O)C(=O)N[C@@H](CC(C)C)C(=O)N1CCC[C@H]1C(=O)N1CCC[C@H]1C(=O)N[C@H](C(=O)N[C@@H](CCC(=O)O)C(=O)N[C@H](C(=O)NCC(=O)N[C@@H](CO)C(=O)N[C@@H](CC(N)=O)C(=O)N[C@H](C(=O)N[C@@H](Cc1ccc(O)cc1)C(N)=O)[C@@H](C)O)C(C)C)[C@@H](C)O [Peptide 43, K(γE-C18diacid)K[CNTATC]ATQRLANFLRHSS(Aib)NFGPILPPTEVGSNTY-amide] (H-K([γGlu-C18 diacid])KCNTATCATQRLANFLRHSS[Aib]NFGPILPPTEVGSNTY-NH2; disulfide 3-8; N-terminus assumed) | – | 3650 pM | 14.5 pM | 29 | 647 pM | 60.8 % vehicle treated intake | 55.6 % vehicle treated intake | 46.6 % vehicle treated intake | 9.3 h | 10 h | 19000 pM
CC[C@H](C)[C@H](NC(=O)[C@@H]1CCCN1C(=O)CNC(=O)[C@H](Cc1ccccc1)NC(=O)[C@H](CC(N)=O)NC(=O)[C@H](CC(N)=O)NC(=O)[C@H](CO)NC(=O)[C@H](CO)NC(=O)[C@H](Cc1c[nH]cn1)NC(=O)C(C)(C)NC(=O)[C@H](CC(C)C)NC(=O)[C@H](Cc1ccccc1)NC(=O)[C@H](CC(N)=O)NC(=O)[C@H](C)NC(=O)[C@H](CC(C)C)NC(=O)[C@H](CCCNC(=N)N)NC(=O)[C@H](CCC(N)=O)NC(=O)[C@@H](NC(=O)[C@H](C)NC(=O)[C@@H]1CSSC[C@H](NC(=O)[C@H](CCCCN)NC(=O)[C@@H](N)CCCCNC(=O)CC[C@H](NC(=O)CCCCCCCCCCCCCCCCC(=O)O)C(=O)O)C(=O)N[C@@H](CC(N)=O)C(=O)N[C@@H]([C@@H](C)O)C(=O)N[C@@H](C)C(=O)N[C@@H]([C@@H](C)O)C(=O)N1)[C@@H](C)O)C(=O)N[C@@H](CC(C)C)C(=O)N1CCC[C@H]1C(=O)N1CCC[C@H]1C(=O)N[C@H](C(=O)N[C@@H](CCC(=O)O)C(=O)N[C@H](C(=O)NCC(=O)N[C@@H](CO)C(=O)N[C@@H](CC(N)=O)C(=O)N[C@H](C(=O)N[C@@H](Cc1ccc(O)cc1)C(N)=O)[C@@H](C)O)C(C)C)[C@@H](C)O [Peptide 140] (H-K([γGlu-C18 diacid])KCNTATCATQRLANFL[Aib]HSSNNFGPILPPTEVGSNTY-NH2; disulfide 3-8; N-terminus assumed) | – | 1220 pM | 19.5 pM | 9.2 | 656 pM | 62.4 % vehicle treated intake | 54.4 % vehicle treated intake | 56.5 % vehicle treated intake | 10.6 h | 12.9 h | 6050 pM
